# Reference: publication PMC7679387, “VZHE-039, a novel antisickling agent that prevents erythrocyte sickling under both hypoxic and anoxic conditions” (Scientific Reports, 2020)
# Values joined by “and” are separate entries in the source; they are usually repeats but may differ in a detail not shown here. Equal entries are not always repeated.
# How the values were obtained:
# SS cells = test: Antisickling study with SS cells under hypoxia (2.5% O2); assay type: cell-based, human; conditions: 20% hematocrit, […] O2, 37 °C
# Procedure: (§1) For our previously studied compounds (e.g., INN-312, TD-7, SAJ-310, INN-298) that incorporate methoxyPy substitution to vanillin analogs, we observed a significant increase in functional and biological activity as a result of increased protein interactions[31],[33],[35],[36]. We therefore expected similar effects for VZHE-039, which we tested by following VZHE-039 activity (measured by Hb adduct formation, P50-shift and RBC sickling inhibition) using SS blood. Briefly, we incubated 0.5, 1, and 2 mM concentrations of VZHE-039 with whole blood suspensions from subjects with homozygous SCD (Hct of 20%) under hypoxic conditions (2.5% O2/97.5% N2) at 37 °C for 2 h for expected peak adduct. Aliquot blood samples were drawn into a fixative (2% glutaraldehyde solution), and sickling was assessed by microscopy[31],[33],[35],[36]. Aliquot samples were also subjected to cation-exchange HPLC analyses to assess the degree of Hb modification to the high-affinity adduct form (Hb adduct formation), as well as standard O2 equilibrium curves (OEC) to assess P50-shifts using hemox analyzer[31],[33],[35],[36]. […] The improved potency of Voxelotor has been attributed to reduced binding stoichiometry, i.e. while Voxelotor binds Hb at a 1:1 ratio, VZHE-039 binds Hb at a 2:1 ratio. […] This observation, as will be discussed later is likely due to a meaningful contribution from the novel O2-independent antisickling activity as result of the strong contact with the αF-helix.
# (§2) The effect of VZHE-039 on RBC sickling, Hb modification, and Hb oxygen equilibrium was studied utilizing samples from consented individuals with homozygous SCD following previous procedure. Briefly, blood suspended in Hemox buffer and supplemented with glucose and bovine serum albumin, to a final hematocrit of 20% were incubated under air in the absence or presence of 0.5 mM, 1 mM and 2 mM VZHE-039 at 37 °C for 1 h. This was followed by incubating the suspensions under hypoxic conditions (2.5% O2/97.5% N2) at 37 °C for 2 h. Aliquot samples were obtained and fixed with 2% glutaraldehyde solution without exposure to air, and then subjected to microscopic morphological analysis of bright field images (at × 40 magnification) of single layer cells on an Olympus BX40 microscope fitted with an Infinity 2 camera (Olympus), and the coupled Image Capture software. Leftover samples were washed in phosphate-buffer saline, and hemolyzed in hypotonic lysis buffer for subsequent Hb-modification and oxygen equilibrium analyses.
# HbS = biological target: T1, HbS (Homo sapiens, UniProt P69905); test: Hb modification (HbS adduct formation) by cation-exchange HPLC of lysates from SS cells; assay type: cell-based; conditions: SS cells, 20% hematocrit, HPLC of hemolysates
# T1 construct: whole blood suspensions from subjects with homozygous SCD (Hct of 20%); from tissue; host or cells: whole blood / red blood cells of patients with homozygous SS sickle cell disease; lysate for HPLC and OEC
# T1 sequence (P69905 2-142): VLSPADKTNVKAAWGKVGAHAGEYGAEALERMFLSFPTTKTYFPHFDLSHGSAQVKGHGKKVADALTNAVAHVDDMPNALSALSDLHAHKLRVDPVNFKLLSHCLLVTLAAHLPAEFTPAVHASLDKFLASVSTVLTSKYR
# T1 sequence (P68871 with tags, fused parts or gaps E7V partner): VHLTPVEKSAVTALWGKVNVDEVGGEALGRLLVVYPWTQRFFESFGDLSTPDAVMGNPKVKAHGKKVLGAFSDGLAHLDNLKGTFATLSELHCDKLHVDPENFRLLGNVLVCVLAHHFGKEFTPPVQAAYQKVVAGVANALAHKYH
# Procedure: as §1, §2
# Finally, for the Hb adduct formation studies, the above clarified lysates were subjected to cation-exchange HPLC (Hitachi D-7000 Series, Hitachi Instruments, Inc., San Jose, CA), using a weak cation-exchange column (Poly CAT A: 30 mm × 4.6 mm, Poly LC, Inc., Columbia, MD). A commercial standard consisting of approximately equal amounts of composite HbF, HbA, HbS and HbC (Helena Laboratories, Beaumont, TX), was utilized as the reference for isotypes. The areas of new peaks, representing HbS adducts, were obtained, calculated as percentage fractions of total Hb area, and reported as levels of modified Hb.
# [1] = Partitioning into RBCs in whole blood; assay type: in vitro ADME; conditions: 100–300 µM; normal whole human blood, 37 °C
# Procedure: Toxicity concerns remain an important issue in the use of aromatic aldehydes in treating a chronic disease, such as SCD, especially as it involves modification of a large amount of in vivo present Hb. […] We evaluated key metrics such as in vitro RBC partitioning and ADME/safety profiles, in order to glean important safety insights. […] We also assessed VZHE-039 at 10 μM for its bi-directional cell permeability using Caco-2 cell monolayers[53],[54].
# We incubated test compounds at expected blood concentrations (100–300 uM) with whole blood (mouse or human), after which we analyzed compound concentrations separately in plasma, whole blood and RBCs. Previously, we have established and validated reversed-phase HPLC and LC/MS methods for accurately measuring the compounds in blood. Validated reversed-phase HPLC was conducted on a Hitachi system, using a Waters C18 column, and a gradient of 0.1% Formic Acid in water (mobile phase A), and 0.1% Formic Acid in Acetonitrile (mobile phase B) at a flow rate of 1 mL/min in 12 min. UHPLC and LC/MS analyses were conducted at the Bioanalytical Core Facility at The Children’s Hospital of Philadelphia. […] 5 uL of each sample was injected at analyzed using a gradient of: (A) 5 mM ammonium acetate in deionized water (pH adjusted to 4.8 by formic acid); and (B) 5 mM ammonium acetate in (90:10) acetonitrile: water, at a flow rate of 0.5 mL/minute. […]
smiles,measurement,setting,value
"O=Cc1c(O)cccc1OCc1cccc(CO)n1 [VZHE-039, 2-((6-(Hydroxymethyl)pyridin-2-yl)methoxy)-6-hydroxybenzaldehyde]",Sickling Inhibition,SS cells; 0.5 mM,34.5 ± 2.4%
same,Sickling Inhibition,SS cells; 1 mM,63.7 ± 6.9%
same,Sickling Inhibition,SS cells; 2 mM,92.8 ± 5.5%
same,inhibition at 500 µM,"SS cells; Homo sapiens, 0.5 mM, read-out: Sickling Inhibition",35%
same,inhibition at 1000 µM,"SS cells; Homo sapiens, 1 mM, read-out: Sickling Inhibition",63%
same,inhibition at 2000 µM,"SS cells; Homo sapiens, 2 mM, read-out: Sickling Inhibition",93%
same,Hb Modification,HbS; 0.5 mM,38% and 38.0 ± 7.2%
same,Hb Modification,HbS; 1 mM,72% and 72.6 ± 6.4%
same,Hb Modification,HbS; 2 mM,97.4 ± 6.7%
same,Partitioned into the RBC compartment,[1],approximately 85%
